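Protocol summary: plate cells (96-well), add compound at 5 concentrations, incubate 48 h, interpolate endpoints linearly. GI50: concentration for 50% inhibition of growth.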 Calls of active or inactive are those of the source. Cut-off read from the data, not from the text of the source: active = GI50 up to about 1.1 µM and inactive = higher.
What was measured:
Assay in all cases: NCI tumour cell line growth inhibition, 48 h
U-251 = test system: U-251
SK-MEL-2 = test system: SK-MEL-2
LOX IMVI = test system: LOX IMVI
RXF 393 = test system: RXF 393
OVCAR-4 = test system: OVCAR-4
HOP-62 = test system: HOP-62
SF-295 = test system: SF-295
HOP-92 = test system: HOP-92
SNB-19 = test system: SNB-19
NCI-H460 = test system: NCI-H460
K562 = test system: K562
SF-268 = test system: SF-268
HT-29 = test system: HT-29
OVCAR-3 = test system: OVCAR-3
SK-MEL-28 = test system: SK-MEL-28
786-0 = test system: 786-0
CCRF-CEM = test system: CCRF-CEM

Measured: GI50

CC(=O)C1C(=O)C(=O)N(CCN2C(=O)C(=O)C(C(C)=O)C2=O)C1=O (configuration not stated)
inactive: U-251 > 100 µM | SK-MEL-2 > 100 µM | LOX IMVI > 100 µM | RXF 393 > 100 µM | OVCAR-4 > 100 µM | HOP-62 > 100 µM | SF-295 > 100 µM | HOP-92 > 100 µM | SNB-19 > 100 µM | NCI-H460 > 100 µM | K562 > 100 µM | SF-268 > 100 µM | HT-29 > 100 µM | OVCAR-3 > 100 µM | SK-MEL-28 > 100 µM | 786-0 > 100 µM

O=C1[C@H]2ON(c3ccccc3)C(c3ccccc3)[C@H]2C(=O)N1c1ccc(Cc2ccc(N3C(=O)[C@@H]4ON(c5ccccc5)C(c5ccccc5)[C@@H]4C3=O)cc2)cc1 (some centres not stated)
inactive: U-251 > 100 µM | SK-MEL-2 > 100 µM | LOX IMVI > 100 µM | RXF 393 88.1 µM | OVCAR-4 > 100 µM | HOP-62 > 100 µM | CCRF-CEM > 100 µM | SF-295 > 100 µM | HOP-92 > 100 µM | NCI-H460 > 100 µM | K562 > 100 µM | SF-268 > 100 µM | HT-29 > 100 µM | OVCAR-3 > 100 µM | SK-MEL-28 > 100 µM | 786-0 > 100 µM

COc1c(C2=NC(C(C)C)CO2)ccc2ccccc12 (configuration not stated)
inactive: SK-MEL-2 65.5 µM | LOX IMVI 21.5 µM | RXF 393 16.4 µM | OVCAR-4 31.7 µM | HOP-62 47.8 µM | CCRF-CEM 15.3 µM | SF-295 26.7 µM | HOP-92 30.1 µM | SNB-19 50.5 µM | NCI-H460 9.25 µM | K562 15.1 µM | SF-268 29.6 µM | HT-29 24.3 µM | OVCAR-3 37.2 µM | SK-MEL-28 38.6 µM | 786-0 45.9 µM

NS(=O)(=O)c1ccc(NC(=O)c2cccc3c(=O)c4ccccc4[nH]c23)cc1
inactive: U-251 48.4 µM | SK-MEL-2 41 µM | LOX IMVI 20.7 µM | OVCAR-4 29.6 µM | HOP-62 39.8 µM | CCRF-CEM 5.85 µM | SF-295 > 100 µM | HOP-92 > 100 µM | SNB-19 76.4 µM | NCI-H460 > 100 µM | K562 62.2 µM | SF-268 30.6 µM | HT-29 > 100 µM | OVCAR-3 > 100 µM | SK-MEL-28 54.1 µM | 786-0 > 100 µM

CC(C)N(C(=O)C12C3C4C5C3C1(C(=O)O)C5C42)C(C)C (configuration not stated)
inactive: U-251 > 100 µM | SK-MEL-2 > 100 µM | LOX IMVI > 100 µM | OVCAR-4 > 100 µM | HOP-62 > 100 µM | CCRF-CEM > 100 µM | SF-295 > 100 µM | HOP-92 > 100 µM | SNB-19 > 100 µM | NCI-H460 > 100 µM | K562 > 100 µM | SF-268 > 100 µM | HT-29 > 100 µM | OVCAR-3 > 100 µM | SK-MEL-28 > 100 µM | 786-0 > 100 µM

COc1cccc(N2C(=O)[C@H]3[C@H]4CC(C(C)(C)C)CC[C@H]4c4c([nH]c5ccccc45)[C@H]3C2=O)c1 (some centres not stated)
inactive: SK-MEL-2 20.3 µM | LOX IMVI 16.5 µM | RXF 393 21.1 µM | HOP-62 17.7 µM | CCRF-CEM 13.7 µM | SF-295 15.1 µM | SNB-19 18.9 µM | K562 14 µM | SF-268 27.3 µM | HT-29 21.3 µM | OVCAR-3 15.7 µM | SK-MEL-28 18.7 µM | 786-0 16.6 µM

CC(=O)c1cc2c3c(c1)c1cc4c(cc1c(=O)n3CC2)OCO4
inactive: U-251 27 µM | SK-MEL-2 > 100 µM | LOX IMVI 13.9 µM | RXF 393 32.4 µM | OVCAR-4 25.8 µM | HOP-62 44.5 µM | CCRF-CEM 11.9 µM | SF-295 26.9 µM | HOP-92 54.8 µM | SNB-19 28.5 µM | NCI-H460 11.2 µM | K562 18.1 µM | HT-29 19.4 µM | OVCAR-3 33.8 µM | SK-MEL-28 65.3 µM | 786-0 13.4 µM

CC(=O)OC12CCCCC1C1(CCCC1)NC2=O (configuration not stated)
inactive: U-251 > 100 µM | LOX IMVI > 100 µM | RXF 393 > 100 µM | OVCAR-4 > 100 µM | HOP-62 > 100 µM | CCRF-CEM > 100 µM | SF-295 > 100 µM | SNB-19 > 100 µM | NCI-H460 > 100 µM | K562 > 100 µM | SF-268 > 100 µM | HT-29 > 100 µM | OVCAR-3 > 100 µM | SK-MEL-28 > 100 µM | 786-0 > 100 µM

CCc1c(OC(C)=O)c2c(NC3OC(COC(C)=O)C(OC(C)=O)C(OC(C)=O)C3OC(C)=O)nc(OC)nc2oc1=O (configuration not stated)
inactive: U-251 > 100 µM | SK-MEL-2 > 100 µM | LOX IMVI > 100 µM | RXF 393 > 100 µM | OVCAR-4 > 100 µM | HOP-62 > 100 µM | CCRF-CEM > 100 µM | SF-295 > 100 µM | SNB-19 > 100 µM | NCI-H460 > 100 µM | K562 > 100 µM | HT-29 > 100 µM | OVCAR-3 > 100 µM | 786-0 > 100 µM

CCN(CC)CCC(=O)Nc1ccc2c(c1)C(=O)c1ccc(NC(=O)CCN(CC)CC)cc1C2=O
inactive: U-251 9.18 µM | SK-MEL-2 4.79 µM | LOX IMVI 2.19 µM | RXF 393 2.11 µM | OVCAR-4 4.63 µM | HOP-62 5.37 µM | CCRF-CEM 3.55 µM | SF-295 11.3 µM | HOP-92 12.8 µM | SNB-19 5.48 µM | NCI-H460 1.38 µM | K562 3.29 µM | SF-268 5.62 µM | HT-29 2.59 µM | SK-MEL-28 12.2 µM | 786-0 2.15 µM

c1cnc2nc3n(c2c1)CSC3
inactive: U-251 > 100 µM | SK-MEL-2 > 100 µM | LOX IMVI > 100 µM | RXF 393 > 100 µM | OVCAR-4 > 100 µM | HOP-62 > 100 µM | CCRF-CEM > 100 µM | SF-295 > 100 µM | HOP-92 > 100 µM | NCI-H460 > 100 µM | K562 > 100 µM | SF-268 > 100 µM | HT-29 > 100 µM | OVCAR-3 > 100 µM | SK-MEL-28 > 100 µM | 786-0 > 100 µM

O=[N+]([O-])c1nccn1COCCI
inactive: U-251 > 100 µM | SK-MEL-2 > 100 µM | LOX IMVI > 100 µM | OVCAR-4 > 100 µM | HOP-62 > 100 µM | CCRF-CEM > 100 µM | SF-295 > 100 µM | HOP-92 > 100 µM | SNB-19 > 100 µM | NCI-H460 > 100 µM | K562 > 100 µM | SF-268 > 100 µM | HT-29 > 100 µM | OVCAR-3 > 100 µM | SK-MEL-28 > 100 µM | 786-0 > 100 µM

CCOC(=O)Nc1ccc(S(=O)(=O)I)cc1.CCOC(=O)Nc1ccc(S(=O)(=O)I)cc1.CN(C=O)C1=C(N(C)C=O)C(N(C)C=O)=C(N(C)C=O)C(=O)C1=O
inactive: U-251 > 100 µM | SK-MEL-2 > 100 µM | LOX IMVI > 100 µM | HOP-62 > 100 µM | CCRF-CEM > 100 µM | SF-295 > 100 µM | HOP-92 > 100 µM | SNB-19 > 100 µM | NCI-H460 > 100 µM | K562 > 100 µM | SF-268 > 100 µM | HT-29 > 100 µM | SK-MEL-28 > 100 µM | 786-0 > 100 µM

CC1CCC2(OCCO2)[C@]2(C)CC(O)C(=O)C=C12 (some centres not stated)
inactive: U-251 > 100 µM | SK-MEL-2 > 100 µM | RXF 393 > 100 µM | CCRF-CEM > 100 µM | SF-295 > 100 µM | HOP-92 > 100 µM | SNB-19 > 100 µM | NCI-H460 > 100 µM | K562 > 100 µM | SF-268 > 100 µM | HT-29 > 100 µM | OVCAR-3 > 100 µM | SK-MEL-28 > 100 µM | 786-0 > 100 µM

CC1(Cl)C(=O)NC(=O)N([C@H]2C[C@H](O)[C@@H](CO)O2)C1N=[N+]=[N-] (some centres not stated)
inactive: U-251 > 100 µM | SK-MEL-2 > 100 µM | LOX IMVI > 100 µM | RXF 393 > 100 µM | OVCAR-4 > 96.2 µM | HOP-62 > 100 µM | CCRF-CEM > 100 µM | SF-295 > 100 µM | HOP-92 > 100 µM | SNB-19 > 100 µM | NCI-H460 > 100 µM | K562 > 100 µM | SF-268 > 100 µM | HT-29 > 100 µM | OVCAR-3 > 100 µM | SK-MEL-28 > 61.1 µM | 786-0 > 100 µM

Cc1ccccc1-n1c2nc(=O)n(C)c(=O)c-2nc2ccccc21
inactive: U-251 17.3 µM | SK-MEL-2 15.1 µM | LOX IMVI 15.7 µM | RXF 393 17.2 µM | OVCAR-4 13.6 µM | HOP-62 38.5 µM | CCRF-CEM 13.3 µM | SF-295 14.2 µM | SNB-19 14.6 µM | NCI-H460 9.55 µM | K562 18.2 µM | SF-268 12.7 µM | HT-29 4.24 µM | OVCAR-3 2.33 µM | 786-0 15.8 µM

COc1ccc(CC2NCCc3c2[nH]c2ccccc32)cc1 (configuration not stated)
inactive: U-251 82 µM | SK-MEL-2 > 100 µM | LOX IMVI 42 µM | OVCAR-4 54 µM | HOP-62 > 100 µM | CCRF-CEM 46.2 µM | SF-295 96.6 µM | HOP-92 16 µM | SNB-19 > 100 µM | NCI-H460 35.6 µM | K562 32.6 µM | SF-268 79.6 µM | HT-29 28.3 µM | OVCAR-3 64.6 µM | SK-MEL-28 > 100 µM | 786-0 > 100 µM

Source: ChEMBL document CHEMBL1201862, “PubChem BioAssay data set” (2004)
